# Where two headings read alike, the source gives them in different places.
# Legend:
# [1] = Brain penetration in the rat using HPLC assay; type: in vivo; details: for Tmax: read-out: time of highest brain concentration (converted);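 for % Dose in Brain: IV 4.5 mg/kg via tail vein or PO 21.4 mg/kg by gavage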;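 for Amount in Brain: IV 4.5 mg/kg via tail vein or PO 21.4 mg/kg by gavage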
# Experimental: Three rats were used for each time point. Prior to blood and brain sampling, rats were anesthetized with ether. Blood samples were collected by cardiac puncture. After transcardiac perfusion with normal saline, whole brains were collected. Plasma and brain samples were analyzed using liquid chromatographic florescence detection methods. […] Total amount in brain at these times was respectively 2.5 and 0.04 μg (Tables 2 and 13). Brain to plasma concentration ratio after IV administration was highest (1.8) at 15 minutes and then decreased to a steady value approximately 0.5 at later postdose times (Table 2).
# [2] = system: pancreatic amylase; experiment: Secretion of pancreatic amylase in the rat; type: in vivo; details: 0.01-10 mg/kg i.v.
# [3] = Side effect liability: sedation or ataxia in the hamster; type: in vivo; details: up to 100 mg/kg s.c.
# [4] = biological target: T1, NK1 recognition sites (Mesocricetus auratus, UniProt A0A1U7QPR6); experiment: NK1 binding, hamster brain
# T1 construct: NK1 recognition sites present in human cell line, guinea pig, dog, ferret, and hamster brain; from tissue; host or cells: hamster brain
# [5] = Blood pressure and heart rate of anaesthetized guinea-pigs; type: in vivo, guinea-pig; details: 0.1-1.0 mg/kg i.v.
# T1 sequence (A0A1U7QPR6 1-407): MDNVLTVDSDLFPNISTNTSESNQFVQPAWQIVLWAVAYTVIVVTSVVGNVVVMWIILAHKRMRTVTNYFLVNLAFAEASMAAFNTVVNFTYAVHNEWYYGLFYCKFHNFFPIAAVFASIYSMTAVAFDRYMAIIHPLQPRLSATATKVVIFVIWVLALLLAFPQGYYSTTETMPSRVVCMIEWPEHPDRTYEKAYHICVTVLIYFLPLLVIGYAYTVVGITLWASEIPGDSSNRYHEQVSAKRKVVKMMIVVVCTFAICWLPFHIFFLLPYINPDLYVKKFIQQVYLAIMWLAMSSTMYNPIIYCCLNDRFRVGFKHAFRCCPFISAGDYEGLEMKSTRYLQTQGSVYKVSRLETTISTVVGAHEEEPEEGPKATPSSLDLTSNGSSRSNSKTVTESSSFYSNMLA
smiles,measurement,setting,value
"C[C@H](NC(=O)[C@@](C)(Cc1c[nH]c2ccccc12)NC(=O)OCc1cc2ccccc2o1)c1ccccc1 [The Compound, [R,S]-[2-(1H-Indol-3-yl)-1-methyl-1-(1-phenyl-ethylcarbamoyl)-ethyl]-carbamic acid benzofuran-2-ylmethyl ester]",% Dose in Brain,"[1]; PO 21.4 mg/kg, 2 h",0.00291%
same,Amount in Brain,"[1]; PO 21.4 mg/kg, 2 h",189 ± 156 ng
same,total amount in brain,"[1]; PO 21.4 mg/kg, 2 hours",0.04 µg
same,% Dose in Brain,"[1]; PO 21.4 mg/kg, 4 h",0.0064%
same,Amount in Brain,"[1]; PO 21.4 mg/kg, 4 h",410 ± 333 ng
same,% Dose in Brain,"[1]; PO 21.4 mg/kg, 8 h",0.0013 ± 0.0012%
same,Amount in Brain,"[1]; PO 21.4 mg/kg, 8 h",81 ± 73 ng
same,% Dose in Brain,"[1]; PO 21.4 mg/kg, 12 h",0.00047 ± 0.00017%
same,Amount in Brain,"[1]; PO 21.4 mg/kg, 12 h",30 ng
same,Tmax,"[1]; brain, IV 4.5 mg/kg",0.25 h
same,Tmax,"[1]; brain, PO 21.4 mg/kg",2 h
same,Kp,"[1]; brain, iv, 4.5 mg/kg, IV 4.5 mg/kg, later postdose times, read-out: brain to plasma concentration ratio, steady value",~0.5
same,concentration at 0.25 h,"[1]; brain, iv, 4.5 mg/kg, IV bolus 4.5 mg/kg in PEG-400/EtOH/Water, read-out: Brain Conc. (BC)",1400 ng/g
same,Kp at 0.25 h,"[1]; brain, iv, 4.5 mg/kg, IV bolus 4.5 mg/kg, read-out: BC/PC Ratio",1.8
same,Kp at 2 h,"[1]; brain, iv, 4.5 mg/kg, IV bolus 4.5 mg/kg, 2 h, read-out: BC/PC Ratio",0.47 ± 0.11
same,concentration at 2 h,"[1]; brain, iv, 4.5 mg/kg, IV bolus 4.5 mg/kg, 2 h, read-out: Brain Conc. (BC)",57 ± 4.5 ng/g
same,Kp at 4 h,"[1]; brain, iv, 4.5 mg/kg, IV bolus 4.5 mg/kg, 4 h, read-out: BC/PC Ratio",0.47 ± 0.05
same,concentration at 4 h,"[1]; brain, iv, 4.5 mg/kg, IV bolus 4.5 mg/kg, 4 h, read-out: Brain Conc. (BC)",20 ± 1.9 ng/g
same,concentration at 8 h,"[1]; brain, iv, 4.5 mg/kg, IV bolus 4.5 mg/kg, 8 h, N = 1, read-out: Brain Conc. (BC)",4.8 ng/g
same,Kp at 8 h,"[1]; brain, iv, 4.5 mg/kg, IV bolus 4.5 mg/kg, 8 h, read-out: BC/PC Ratio",0.52
same,concentration at 0.25 h,"[1]; brain, po, 21.4 mg/kg, PO 21.4 mg/kg in PEG-400/EtOH/Water, read-out: Brain Conc. (BC)",31 ± 17 ng/g
same,Kp at 0.25 h,"[1]; brain, po, 21.4 mg/kg, PO 21.4 mg/kg, read-out: BC/PC Ratio",0.27 ± 0.06
same,Kp at 2 h,"[1]; brain, po, 21.4 mg/kg, PO 21.4 mg/kg, 2 h, read-out: BC/PC Ratio",0.3 ± 0.03
same,concentration at 2 h,"[1]; brain, po, 21.4 mg/kg, PO 21.4 mg/kg, 2 h, read-out: Brain Conc. (BC)",96 ± 79 ng/g
same,Kp at 4 h,"[1]; brain, po, 21.4 mg/kg, PO 21.4 mg/kg, 4 h, read-out: BC/PC Ratio",0.29 ± 0.09
same,concentration at 4 h,"[1]; brain, po, 21.4 mg/kg, PO 21.4 mg/kg, 4 h, read-out: Brain Conc. (BC)",212 ± 168 ng/g
same,Kp at 8 h,"[1]; brain, po, 21.4 mg/kg, PO 21.4 mg/kg, 8 h, read-out: BC/PC Ratio",0.33 ± 0.11
same,concentration at 8 h,"[1]; brain, po, 21.4 mg/kg, PO 21.4 mg/kg, 8 h, read-out: Brain Conc. (BC)",41 ± 38 ng/g
same,Kp at 12 h,"[1]; brain, po, 21.4 mg/kg, PO 21.4 mg/kg, 12 h, read-out: BC/PC Ratio",0.41 ± 0.27
same,concentration at 12 h,"[1]; brain, po, 21.4 mg/kg, PO 21.4 mg/kg, 12 h, read-out: Brain Conc. (BC)",15 ± 5 ng/g
same,penetration into the brain,[1]; following IV administration,fast
same,concentration at 0.25 h,"[1]; plasma, iv, 4.5 mg/kg, IV bolus 4.5 mg/kg, read-out: Plasma Conc. (PC)",819 ± 87 ng/mL
same,concentration at 2 h,"[1]; plasma, iv, 4.5 mg/kg, IV bolus 4.5 mg/kg, 2 h, read-out: Plasma Conc. (PC)",124 ± 17 ng/mL
same,concentration at 4 h,"[1]; plasma, iv, 4.5 mg/kg, IV bolus 4.5 mg/kg, 4 h, read-out: Plasma Conc. (PC)",43 ± 5.6 ng/mL
same,concentration at 8 h,"[1]; plasma, iv, 4.5 mg/kg, IV bolus 4.5 mg/kg, 8 h, read-out: Plasma Conc. (PC)",5.6 ± 3.3 ng/mL
same,concentration at 12 h,"[1]; plasma, iv, 4.5 mg/kg, IV bolus 4.5 mg/kg, 12 h, read-out: Plasma Conc. (PC)",4 ± 1.1 ng/mL
same,concentration at 0.25 h,"[1]; plasma, po, 21.4 mg/kg, PO 21.4 mg/kg, read-out: Plasma Conc. (PC)",126 ± 92 ng/mL
same,concentration at 2 h,"[1]; plasma, po, 21.4 mg/kg, PO 21.4 mg/kg, 2 h, read-out: Plasma Conc. (PC)",301 ± 244 ng/mL
same,concentration at 4 h,"[1]; plasma, po, 21.4 mg/kg, PO 21.4 mg/kg, 4 h, read-out: Plasma Conc. (PC)",642 ± 433 ng/mL
same,concentration at 8 h,"[1]; plasma, po, 21.4 mg/kg, PO 21.4 mg/kg, 8 h, read-out: Plasma Conc. (PC)",108 ± 80 ng/mL
same,concentration at 12 h,"[1]; plasma, po, 21.4 mg/kg, PO 21.4 mg/kg, 12 h, read-out: Plasma Conc. (PC)",45 ± 20 ng/mL
same,stimulation of secretion of pancreatic amylase,[2],failed
same,ataxia,[3],failed to induce
same,sedation,[3],failed to induce
same,affinity to NK1 recognition sites,[4],nanamolar affinity
same,blood pressure,[5],failed to affect
same,heart rate,[5],failed to affect

# — patent US5998435A, “Use of a tachykinin antagonist for the manufacture of a medicament for the treatment of emesis” (priority 1998, dated 1999)
